pEC50: −log10 of the molar value.

Test [1] concerns core clock genes Per2, Bmal1, Cry2 in liver. Briefly: Four day study, liver core clock gene mRNA in ICR mice. In kind it is in vivo, mouse. The conditions noted are these: 50 mg/kg PO BID 4 days; for liver Per2 expression: ZT6. Here is the method: Male ICR mice (weighing 30-35 g), obtained from Charles River Laboratories (Hollister, Calif.), were used for the experiment following at least 3 days of acclimation. Mice were dosed with vehicle (WFI or 10% Kolliphor) or compound (50 mg/kg, dose volume 5 mL/kg, PO) for 4 days BID (twice a day), beginning in the afternoon of the first day. The last dose of compound or vehicle was administered on the morning of harvest. On the day of harvest (6 hours following the final dose), mice were euthanized by CO2 asphyxiation and 50 mg of liver tissue was excised and placed in a tube containing 500 μl of RNA later.
E.Z.N.A.® HP Total RNA Isolation Kits (R6812-01 and the protocol described in the Manual, Revised 2010) were utilized to prepare and isolate RNA from the liver samples. To prepare the RNA samples, 10-30 mg of sample was removed from RNA-Later and placed in a 1.5 ml microfuge tube. GTC lysis buffer (700 μl) was added to the tissue, which was homogenized with a rotor-stator homogenizer (e.g. Tissue-Tearor, Model #985370 BioSpec Products with 4.5 mm probe, Cat. #985370-04), and then centrifuged at full speed (≥13,000×g) for 5 minutes. The cleared supernatant was transferred by pipetting to a DNA Clearance Column Pre-inserted in a 2 mL Collection Tube. The assembled column was centrifuged at 13,000×g for 1 minute, and the flow-through was saved. An equal volume (700 μl) of 70% ethanol was added to the lysate and mixed. The sample was then applied to a HiBind RNA spin column placed into a 2 ml collection tube, which was centrifuged at 10,000×g for 60 seconds at room temperature. RNA Wash Buffer I (250 μl) was added by pipetting directly onto a new HiBind RNA column inserted in a 2 ml collection tube. The assembled column was centrifuged at 10,000×g for 60 seconds. The RNA column was placed into a new 2 ml collection tube. DNase I stock solution is pipetted (75 μl) directly onto the surface of the HiBind RNA resin in each column (Using DNAse Digestion with RNase Free DNase Set (E1091): for each HiBind RNA column, the DNase I stock solution was prepared as followed: E.Z.N.A.® DNase I Digestion Buffer 73.5 μl, RNase Free DNase I (20 Kunitz/μl) 1.5 μl=Total Volume 75 μl). The column with bound RNA was incubated at room temperature (25-30° C.) for 15 minutes. RNA Wash Buffer I (500 μl) was added to the column and placed on a bench top for 2 minutes. After centrifuging at 10,000×g for 60 seconds, discarding the flow-through, 500 μl of RNA Wash Buffer II was added and centrifuged at 10,000×g for 60 seconds. Another 500 μl of RNA Wash Buffer II was added and the column assembly was centrifuged at 10,000×g for 60 seconds. The column was centrifuged for 2 minutes at maximum speed to completely dry the HiBind matrix. The column was placed in a clean 1.5 ml microcentrifuge tube and 40-70 μl of molecular biology grade water is added. After sitting for 1 minute, the column was centrifuged for 2 minutes at maximum speed to elute the RNA. The isolated RNA was collected into the collection tube.
RediPlate 96 RiboGreen RNA Quantification Kit (Invitrogen) RediPlate standard curve was prepared by transferring 20 l reconstituted RNA standard to a RediPlate well reconstituted in 180 l RediPlate TE buffer. For liver RNAs prepared from 30-100 mg of tissue using a kit similar to the Omega Bio-Tek HP Total RNA Kit and eluted in RNAse-free water in a volume of 50 l (microliters), 5 l of the total RNA is diluted in 195 l of RediPlate TE buffer (1:40 dilution of RNA), mix. After transferring 5 l to RediPlate well reconstituted in 195 l TE buffer and incubating 10 min. at RT, Fluorescence Intensity of wells with standards and samples were read in a Tecan M200 with Excitation set at 480 nm and Emission set at 520 nm with the gain set to ˜70%. Alternatively, one can use the FlexStation 3 with Ex 488 nm and Em 525 nm and a Cutoff of 515 nm.

Test [2] deals with stable U20S reporter cells harboring Per2-dLuc. Nature of the test: Per2 assay for evaluating the potency of test compounds (Per2-dLuc luminescence amplitude). Format: cell-based. Here is the method:
Compounds were screened by using a high-throughput circadian assay system as previously described in Zhang, E. E. et al. Cell, 2009, 139, 199-210. In brief, stable U20S reporter cells harboring Per2-dLuc were plated at a density of 30,000 cells/well in Corning 96-well, solid white, flat bottom, TC-treated microplates (Corning®), and incubated for 48 hours at 37° C. in the presence of 5% CO2 in a medium of Dulbecco's Modified Eagle Medium (DMEM) supplemented with 10% fetal bovine serum (FBS) and penicillin (100 units/mL)-streptomycin (100 μg/mL). […] DMSO stocks are then serially diluted in DMSO, typically diluting 3-fold for each dilution step. […] Immediately following synchronization, 1 μL of compound dilution is added to each well. Plates are sealed, shaken briefly, and gene expression was monitored by measuring luminescence (Tecan® Infinite M200 or Tecan® Infinite M200 Pro) continuously for a minimum of 3 days at 35° C. Raw luminescence data (counts) are first analyzed using Multicycle™ software (Actimetrics, Inc.) to determine the amplitude (amp), period, and phase (phz) for each compound concentration. The period length for control wells (i.e. no compound, DMSO only) should be 26-30 h. Amp data are then plotted against the logarithm compound concentration (M) and analyzed by nonlinear regression analysis to determine the EC50.

The test system of test [3] is rat model of cortisone-induced insulin resistance. Briefly: Cortisone induced insulin resistance in rats. Format: in vivo. To be noted: cortisone 30 mg/kg sc with vehicle po. The method, then: Animals were dosed with cortisone (30 mg/kg sc qd) in combination with test compounds for 6 days and then terminated 27 hours after the final dose of cortisone. A reference standard (Mifepristone) was also included. Cortisone 21-acetate (Sigma C-3130) was supplied by RenaSci and administered using a dose volume of 5 ml/kg via the subcutaneous route as a fine suspension in 1% methylcellulose. […] Mifepristone (Sigma M8046) was provided by RenaSci.
Glucose and insulin determinations were performed on plasma samples obtained from a tail vein bleed taken after a 12 h fast, approximately 27 h after the last cortisone dose. Animals were then terminated and a terminal (cardiac) blood sample taken from which plasma was prepared.
Thirty four male Sprague Dawley rats (weight range 200-250 g) were ordered from Charles River, Margate, Kent, UK. […] Subsequently, animals underwent a 3 day baseline period during which they were dosed once daily with vehicle at t=0 h (07:00). […] Body weight was recorded immediately before dosing began at 07:00 (t=0 h).
On Day 6 of dosing rats were fasted for 12 h beginning at 22:30 (timed to coincide with the Day 7 termination). […] At 10:30 on Day 7, 27 h after the final dose of cortisone, a blood sample (300 μl) was taken from the lateral tail vein into tubes containing EDTA (Sarstedt 16.444). The blood was centrifuged and resultant plasma aliquot stored at −75° C. The animals were euthanized by CO2 asphyxiation followed by cervical dislocation. Terminal blood (approximately 10 ml) was collected by cardiac puncture into tubes containing EDTA (Sarstedt 5 ml 32.332) and then centrifuged and plasma stored at −75° C. The tail vein plasma was analyzed for glucose (n=2) using a commercial clinical reagent (Thermoelectron Infinity glucose reagent (TR15421) and for insulin (n=1) using the Mercodia ultrasensitive rat insulin rat ELISA (10-1251-10).
Plasma glucose and insulin were analyzed by robust regression or general linear model with treatment as a factor and bleeding order and baseline body weight as covariates. A log transformation was used if appropriate. Appropriate multiple comparison tests (two-tailed) were used to determine significant differences from the vehicle group and from the Cortisone group. P<0.05 was considered to be statistically significant.

On to `O=C1C2CCC(C2)N1CC(O)Cn1c2ccc(F)cc2c2cc(F)ccc21` (stereo not drawn) [Compound 48, 2-(3-(3,6-difluoro-9H-carbazol-9-yl)-2-hvdroxypropyl)-2-azabicyclo[2.2.1]heptan-3-one], for which the “liver Per2 expression” value in test [1] was “suppression”. In test [1] (liver), the Cry2 transcripts result was “decrease” and the “increase in Bmal1 mRNA at ZT6” value came out at 8 fold.

With `COC1CCCN(CC(O)Cn2c3ccc(F)cc3c3cc(F)ccc32)C1=O` (stereo not drawn) [Compound 57, 1-(3-(3,6-difluoro-9H-carbazol-9-yl)-2-hydroxypropyl)-3-methoxypiperidin-2-one], in test [1], the “liver Per2 expression” value is given as “suppression”. In addition, the “increase in Bmal1 mRNA at ZT6” value in test [1] (liver) is reported as not below 2 fold.

Turning to `C[C@@H]1CN(C[C@H](O)Cn2c3ccccc3c3ccccc32)C(=O)N1` [Compound 138, (R)-1-((R)-3-(9H-carbazol-9-yl)-2-hydropropyl)-4-methylimidazolidin-2-one], the pEC50 in test [2] is 6.28.

As for `C[C@]12CCC(=O)C=C1CC[C@@H]1[C@@H]2C(=O)C[C@@]2(C)[C@H]1CC[C@]2(O)C(=O)CO` [Cortisone], in test [3], the HOMA-IR is 95.57+/−11.4 units and the fasted plasma insulin stood at 8.19 ± 0.91 ng/mL. In test [3] (rats), the fasted plasma glucose amounted to 10.17 ± 0.51 mM.

In general, pEC50 refers to the EC50 on a negative log10 scale, so that one unit is a factor of ten.

The values are drawn from patent US10759777B2, “Carbazole-containing amides, carbamates, and ureas as cryptochrome modulators” (Synchronicity Pharma, Inc., priority 2014, dated 2020).
